Data published in patent US20170105953A1, “METHOD FOR SUPPRESSING DIABETES AND/OR HEPATIC LIPIDS USING TORMENTIC ACID” (priority 2015, published 2017).
Values joined by “and” are separate entries in the source; they are usually repeats but may differ in a detail not shown here. Equal values may be shown once. “Also recorded” adds a separate entry of the source.

How the values were obtained:
AMPK = assay: western blot, phospho-AMPK (Thr172)/total-AMPK in liver tissue and skeletal muscle; type: in vivo, C57BL/6J mice; conditions: HF diet-fed mice
Text: (§1) FIG. 4A is a western blot analysis showing the protein contents of GLUT4 in skeletal muscle, and phospho-AMPK (Thr172) and total-AMPK (Thr172) in both liver tissue and skeletal muscle, and phospho-Akt (Ser473) and total-Akt (Ser473) in skeletal muscle of the mice receiving tormentic acid (PTA) by oral gavage for 4 weeks; and
(§2) FIG. 4B is a diagram showing the protein contents of GLUT4 in skeletal muscle, the expression levels of phospho-AMPK (Thr172) to total AMPK in both liver tissue and skeletal muscle, and quantified results from FIG. 4A for the phosphorylation status of Akt (p-Akt normalized to total Akt (pAkt/Akt)) in skeletal muscle of the mice receiving tormentic acid (PTA) by oral gavage for 4 weeks.
(§3) For part 2, C57BL/6J mice (4 weeks old) were obtained from the National Laboratory Animal Breeding and Research Center. The mice were divided randomly into two groups after 7 days acclimation. The control (CON) group (n=9) was fed a low-fat diet (diet 12450B, Research Diets, Inc., New Brunswick, N.J., USA), whereas the experimental group was fed a 45% high-fat diet (diet 12451, Research Diets, Inc.) for 12 weeks. The compositions of the experimental diets are given in previous studies. After 8 weeks, the high-fat treated mice were randomly subdivided into four groups (n=9) including PTA1 (0.06 g/kg/day), PTA2 (0.12 g/kg/day) or rosiglitazone (Rosi; 1% methylcellulose, 10 mg/kg body weight) (GlaxoSmithKline) or vehicle and treated by oral gavage one time per day from the 9th to 12th weeks, while the mice were still on the high-fat diet, whereas the CON and high-fat control (HF) mice were treated with vehicle only. At the end, food was withheld from the animals (from 10 p.m. to 10 a.m.). The next day, the mice were sacrificed for blood and tissue collection and analysis. Livers, skeletal muscles, and white adipose tissues (WATs) (including epididymal, mesenteric, and retroperitoneal WAT) were weighed and excised, followed by immediate freezing, and kept at −80° C. for target gene analysis. Heparin (30 units/mL) (Sigma) was added to blood samples. Plasma samples were collected within 30 min by centrifugation at 1600 g for 15 min at 4° C. Plasma was obtained for insulin and leptin assay.

GLUT4 = assay: western blot, GLUT4 protein in skeletal muscle; type: in vivo, C57BL/6J mice; conditions: HF diet-fed mice
Text: as §1, §2
(§4) For part 2, C57BL/6J mice (4 weeks old) were obtained from the National Laboratory Animal Breeding and Research Center. The mice were divided randomly into two groups after 7 days acclimation. The control (CON) group (n=9) was fed a low-fat diet (diet 12450B, Research Diets, Inc., New Brunswick, N.J., USA), whereas the experimental group was fed a 45% high-fat diet (diet 12451, Research Diets, Inc.) for 12 weeks. The compositions of the experimental diets are given in previous studies. […]

SREBP1c = assay: semiquantitative RT-PCR, liver SREBP1c mRNA; type: in vivo, C57BL/6J mice; conditions: HF diet-fed mice, normalized to GAPDH, vs HF group
Text: as §4
(§5) Total RNA from the liver tissue was isolated with a Trizol reagent (Molecular Research Center, Inc., Cincinnati, Ohio, USA) according to the manufacturer's directions. The integrity of the extracted total RNA was examined by 2% agarose gel electrophoresis, and the RNA concentration was determined by ultraviolet (UV) light absorbency at 260 and 280 nm (spectrophotometer U-2800A, Hitachi). […] The relative density of the band was evaluated using AlphaDigiDoc 1201 software (Alpha Innotech Co., San Leandro, Calif., USA). All of the measured PCR products were normalized to the amount of cDNA of GAPDH in each sample. […]

FAS = assay: semiquantitative RT-PCR, liver FAS mRNA; type: in vivo, C57BL/6J mice; conditions: HF diet-fed mice, normalized to GAPDH, vs HF group
Text: as §4, §5

[1] = hepatic lipids in high-fat diet-fed mice; type: in vivo; conditions: HF diet-fed C57BL/6J mice, mean ± SE, n=9
Text: as §3
Hepatic lipids were extracted using a previously described protocol. For the hepatic lipid extraction, 0.375 g liver samples were homogenized with 1 mL of distilled water for 5 min. Finally, the dried pellet was resuspended in 0.5 mL of ethanol and analyzed using a triglycerides kit as used for serum lipids.

DGAT2 = assay: semiquantitative RT-PCR, liver DGAT2 mRNA; type: in vivo, C57BL/6J mice; conditions: HF diet-fed mice, normalized to GAPDH, vs HF group
Text: as §4, §5

apo C-III = assay: semiquantitative RT-PCR, liver apo C-III mRNA; type: in vivo, C57BL/6J mice; conditions: HF diet-fed mice, normalized to GAPDH, vs HF group
Text: as §4, §5

PEPCK = assay: semiquantitative RT-PCR, liver PEPCK mRNA; type: in vivo, C57BL/6J mice; conditions: HF diet-fed mice, normalized to GAPDH, vs HF group
Text: as §4, §5

[2] = oral glucose tolerance test (OGTT) in normal mice; type: in vivo; conditions: 12 h fasted ICR mice; 0.2, 0.4 and 0.8 g/kg orally 30 min before oral glucose load 1 g/kg; from 30 to 120 min
Method: For part 1, an oral glucose tolerance test (OGTT) was performed on 12 h fasted ICR mice (n=5) that were allowed access to 0.2, 0.4, and 0.8 g/kg PTA or an equivalent amount of vehicle (water), which were given orally 30 min before an oral glucose load (1 g/kg body wt). The control group was given glucose, whereas the normal group was not. Blood samples were collected from the retro-orbital sinus of fasted mice at the time of the glucose administration (0) and every 30 min until 120 min after glucose administration.

Akt = assay: western blot, phospho-Akt (Ser473)/total-Akt in skeletal muscle; type: in vivo, C57BL/6J mice; conditions: HF diet-fed mice
Text: as §1, §2, §4

[3] = PTA1 0.06 g/kg/day oral gavage 4 weeks
[4] = PTA2 0.12 g/kg/day oral gavage 4 weeks

**Q.** With `C[C@@H]1CC[C@]2(C(=O)O)CC[C@]3(C)C(=CC[C@@H]4[C@@]5(C)C[C@@H](O)[C@H](O)C(C)(C)[C@@H]5CC[C@]43C)[C@@H]2[C@]1(C)O` [PTA, tormentic acid] as the molecule, how does the “expression levels of phospho-AMPK/total-AMPK” value (AMPK; liver tissue, PTA1 0.06 g/kg/day 4 weeks) read?
**A.** significantly increase

**Q.** What about the “expression levels of phospho-AMPK/total-AMPK” value (AMPK; liver tissue, PTA2 0.12 g/kg/day 4 weeks) of the same molecule?
**A.** significantly increase

**Q.** And the “expression levels of phospho-AMPK/total-AMPK” value (AMPK; skeletal muscle, PTA1 0.06 g/kg/day 4 weeks)?
**A.** significantly increase

**Q.** And the “expression levels of phospho-AMPK/total-AMPK” value (AMPK; skeletal muscle, PTA2 0.12 g/kg/day 4 weeks)?
**A.** significantly increase

**Q.** What about the “membrane protein levels of GLUT4” value (GLUT4; PTA1 0.06 g/kg/day 4 weeks) of the same molecule?
**A.** significantly increased

**Q.** And the “membrane protein levels of GLUT4” value (GLUT4; PTA2 0.12 g/kg/day 4 weeks)?
**A.** significantly increased; also recorded: marked increases

**Q.** And the “mRNA level of SREBP1c in liver” value (SREBP1c; PTA1 0.06 g/kg/day 4 weeks)?
**A.** significantly decrease

**Q.** And the “mRNA level of SREBP1c in liver” value (SREBP1c; PTA2 0.12 g/kg/day 4 weeks)?
**A.** significantly decrease

**Q.** What about the “mRNA level of FAS in liver” value (FAS; PTA1 0.06 g/kg/day 4 weeks) of the same molecule?
**A.** significantly decrease

**Q.** And the “mRNA level of FAS in liver” value (FAS; PTA2 0.12 g/kg/day 4 weeks)?
**A.** significantly decrease

**Q.** And the “Liver lipids: Total lipid” value [1, 3]?
**A.** 80.1 ± 4.6 mg/g

**Q.** And the “Liver lipids: Triacylglycerol” value [1, 3]?
**A.** 51.7 ± 5.1 µmol/g

**Q.** What about the “Liver lipids: Total lipid” value [1, 4] of the same molecule?
**A.** 68.2 ± 5.9 mg/g

**Q.** And the “Liver lipids: Triacylglycerol” value [1, 4]?
**A.** 35.2 µmol/g and 35.2 ± 4.9 µmol/g

**Q.** What about the “mRNA level of DGAT2 in liver” value (DGAT2; PTA1 0.06 g/kg/day 4 weeks) of the same molecule?
**A.** significantly decrease

**Q.** And the “mRNA level of DGAT2 in liver” value (DGAT2; PTA2 0.12 g/kg/day 4 weeks)?
**A.** significantly decrease

**Q.** And the “mRNA level of apo C-III in liver” value (apo C-III; PTA1 0.06 g/kg/day 4 weeks)?
**A.** significantly decrease

**Q.** What about the “mRNA level of apo C-III in liver” value (apo C-III; PTA2 0.12 g/kg/day 4 weeks) of the same molecule?
**A.** significantly decrease

**Q.** And the “mRNA level of PEPCK in liver” value (PEPCK; PTA1 0.06 g/kg/day 4 weeks)?
**A.** significantly decrease

**Q.** And the “mRNA level of PEPCK in liver” value (PEPCK; PTA2 0.12 g/kg/day 4 weeks)?
**A.** significantly decrease

**Q.** And the “levels of blood glucose (OGTT)” value [2]?
**A.** decreased

**Q.** And the “expression levels of phospho-Akt/total-Akt” value (Akt; PTA1 0.06 g/kg/day 4 weeks)?
**A.** significantly increased

**Q.** And the “expression levels of phospho-Akt/total-Akt” value (Akt; PTA2 0.12 g/kg/day 4 weeks)?
**A.** significantly increased
